According to patent US20250032788A1, “COMPOSITIONS AND METHODS FOR TREATING WITH A COMBINATION OF ALTERNATING ELECTRIC FIELDS AND DNA-DEPENDENT PROTEIN KINASE INHIBITORS” (NOVOCURE GMBH, priority 2023, published 2025):
“Also recorded” adds a separate entry of the source.

Assays:
Format in all cases: cell-based
H1299 cells [1] = experiment: Cell cycle distribution by flow cytometer, H1299; conditions: 150 kHz, different times
Method: (§1) Similar results to the A549 cells were obtained in the H1299 cell line, where the concomitant treatment results in G1 arrest (FIG. 15). In these experiments 15,000 of H1299 cells/dish were seeded in inovitro dishes and incubated overnight to allow cell attachment. The cells were then treated with TTFields (0.97 V/cm RMS. 150 kHz) for different times, alone or with the addition of 6.25 μM of nedisertib. Cell cycle distribution was performed for each treatment alone and for the concomitant treatments using the Cytek® Northern Lights™ flow cytometer.
as §1, with “results” for “results to the A549 cells”, “20).” for “15).”, “The cells were then treated with TTFields (0.97 V/cm RMS. 150 kHz) for different times, alone or with the addition of 6.25 μM of nedisertib.” left out

A549 cells [2] = experiment: Cell cycle distribution by flow cytometer, A549; conditions: for change in the sub G1 phase / cell cycle distribution, concomitant treatment with TTFields: 150 kHz; for cell cycle distribution, concomitant treatment with TTFields: different times
Method: as §1, with “The mechanism of action of” for “Similar results to the A549 cells were obtained in the H1299 cell line, where”, “was investigated and cell cycle analysis was performed.” for “results in G1 arrest (FIG. 15).”, “A549” for “H1299”, “6” for “6.25”, “nedisertib (FIG. 14).” for “nedisertib.”
In these experiments, 15,000 of A549 cells/dish were seeded in inovitro dishes and incubated overnight to allow cell attachment. […] Cell cycle distribution was performed for each treatment alone and for the concomitant treatments using the Cytek® Northern Lights™ flow cytometer.

H1299 cells [3] = experiment: Concomitant TTFields and inhibitor: cell count, colony formation, annexin V/7AAD apoptosis, H1299; conditions: TTFields 0.97 V/cm RMS, 150 kHz, 72 h
Method: (§2) In these experiments 15,000 of H1299 cells/dish were seeded in inovitro dishes and incubated overnight to allow cell attachment. The cells were then treated with TTFields (0.97 V/cm RMS, 150 KHz, 72 h), alone or with the addition of different concentrations of nedisertib. Efficacy was measured by analyzing cell count by flow cytometer (Guava easy Cyte HT), colony formation, and apoptosis induction by annexin V/7AAD staining. The overall effect was calculated by multiplying cell count with colony formation.
as §2, with “The cells were then treated with TTFields (0.97 V/cm RMS, 150 KHz, 72 h), alone or with the addition of different concentrations of nedisertib.” left out

A549 cells [4] = experiment: Inhibitor titration, cell count by flow cytometer, A549; conditions: 72 hr, no TTFields
Method: (§3) This work was began with the titration of nedisertib. For these experiments 15,000 of A549 or H1299 cells/dish were seeded in 12-well plate and incubated overnight to allow cell attachment. The cells were then treated with various concentrations of nedisertib for 72 hr. The remaining cells were counted by flow cytometer (Guava easyCyte HT) (FIG. 11). […] For these experiments 15,000 of A549 or H1299 cells/dish were seeded in 12-well plates and incubated overnight to allow cell attachment. […] The remaining cells were counted by flow cytometer (Guava easy Cyte HT).

H1299 cells [5] = experiment: Inhibitor titration, cell count by flow cytometer, H1299; conditions: 72 hr, no TTFields
Method: as §3

A549 cells [6] = experiment: Concomitant TTFields and inhibitor: cell count, colony formation, annexin V/7AAD apoptosis, A549; conditions: for interaction of co-application of TTFields and inhibitor: summary statement
Method: as §2, with “A549” for “H1299”, “(0.97V/cm” for “(0.97 V/cm”, “kHz,” for “KHz,”, “nedisertib,” for “nedisertib.”
as §2, with “A549” for “H1299”, “The cells were then treated with TTFields (0.97 V/cm RMS, 150 KHz, 72 h), alone or with the addition of different concentrations of nedisertib.” left out

DNA-PK = target: T1, DNA-PK (Homo sapiens, UniProt P78527); experiment: Western blot of DNA-PK autophosphorylation (pS2056) after radiation in primary glioma stem-like cells; conditions: VX984 250 nM, radiation 5 Gy, CX18 edge 2, CX18 core 1, OX5 edge and OX5 core
T1 construct: primary glioma stem-like cells (GSCs) treated with DNA-PKi or IR alone or in combination; endogenous in cells; host or cells: CX18 core 1 / edge 2 and OX5 core / edge primary glioma stem-like cells

[7] = test system: CX18 edge 2, CX18 core 1, OX5 edge and OX5 core primary glioblastoma cells; experiment: Clonogenic survival assay with TTFields, VX984 and radiation in 3D Alvetex culture; conditions: VX984 250 nM, 1 hr pre-treatment, TTFields 200 kHz, 72 hr, radiation, n=3
Method: Clonogenic survival assays of cells pre-treated with VX984 (250 nM, 1 hr) before TTFields incubation (200 kHz, 72 hr) in CX18 edge 2, CX18 core 1, OX5 edge and OX5 core cells. n=3, statistical significance denoted through ANOVA one-way analysis. Representative images of cell death post TTFields treatment in CX18 edge 2), CX18 core 2, OX5 edge and OX5 core cells.
FIG. 6 is a table with a summary of the survival data of TTFields alongside VX984 and radiation. The average intratumoural survival fractions (INTRA); OX5 core vs edge and CX18 core vs edge and the average intertumoural survival fraction; OX5 INTRA vs CX18 INTRA are shown. Bliss indices are calculated to ascertain if cell death is synergistic or addictive using the survival fraction product of DMSO+TTF and Combo−TTF as a ratio against Combo+TTF. Ratios<1.1 are seen as additive cell death whereas>1.1 is synergistic.

[8] = 0.11 μM CC-115, TTFields 0.97 V/cm RMS
[9] = TTFields 0.97 V/cm RMS, 150 kHz, 72 h, different concentrations
[10] = 6 μM nedisertib, TTFields 0.97 V/cm RMS

With `CCN1C(=O)CNc2ncc(-c3ccc(-c4nc[nH]n4)nc3C)nc21` [CC-115] the “cell cycle distribution, concomitant treatment with TTFields” value (“cell cycle distribution … with TTFields” for short) (H1299 cells [1]; 0.3125 μM CC-115, TTFields 0.97 V/cm RMS) was “G1 arrest; also recorded: promotes cell cycle arrest”, the “change in the sub G1 phase” value (A549 cells [2]; [8]) was “don't see a significant change” and the “cell cycle distribution … with TTFields” value (A549 cells [2]; [8]) was “induced G1 arrest and a decreased number of s-phase cells; also recorded: promotes cell cycle arrest”. The “overall effect (cell count multiplied by colony formation) of inhibitor with TTFields” value (“overall effect … of inhibitor with TTFields” below) (H1299 cells [3]; different concentrations) was “additive overall effect; also recorded: enhance”, the “IC50 (remaining cells counted)” value (A549 cells [4]) was “much lower than that of nedisertib” and the “IC50 (remaining cells counted)” value (H1299 cells [5]) was “much lower than that of nedisertib; also recorded: higher than that of A549”. The “levels of apoptosis at the concentration used for cell cycle analysis” value (A549 cells [6]; 0.11 μM CC-115) was “low levels of apoptosis”, the “overall effect … of inhibitor with TTFields” value (A549 cells [6]; [9]) was “synergistically enhanced; also recorded: enhance” and the “interaction of co-application of TTFields and inhibitor” value (A549 cells [6]) was “synergistic interaction”.
For `COc1ccc([C@@H](O)c2cc(-c3ncnc4cc(N5CCOCC5)ccc34)c(F)cc2Cl)nn1` [Nedisertib], the “cell cycle distribution … with TTFields” value (H1299 cells [1]; 6.25 μM nedisertib, TTFields 0.97 V/cm RMS) was “G1 arrest; also recorded: promotes cell cycle arrest”, the “change in the sub G1 phase” value (A549 cells [2]; [10]) was “don't see a significant change” and the “cell cycle distribution … with TTFields” value (A549 cells [2]; [10]) was “highest level of arrest; also recorded: promotes cell cycle arrest”. For the same molecule, the “cell cycle distribution, inhibitor alone” value (A549 cells [2]; 6 μM nedisertib, at most time points) was “induce G1 arrest and a decreased number of s-phase cells”, the “apoptotic effect of the concomitant treatment (annexin V/7AAD)” value (H1299 cells [3]) was “only significant in the higher doses” and the “interaction of concomitant treatment of TTFields and inhibitor” value (H1299 cells [3]) was “additive interaction”. The “cytotoxic effect (cell count) of inhibitor with TTFields” value (H1299 cells [3]; different concentrations) was “enhance”, the “overall effect … of inhibitor with TTFields” value (H1299 cells [3]; different concentrations) was “enhance” and the “interaction of concomitant treatment of TTFields and inhibitor” value (H1299 cells [3]; listed as nedisertib) was “additive effect”. The “IC50 (remaining cells counted)” value (H1299 cells [5]) was “higher than that of A549”, the “levels of apoptosis at the concentration used for cell cycle analysis” value (A549 cells [6]; 6 μM nedisertib) was “low levels of apoptosis” and the “apoptotic effect of the concomitant treatment (annexin V/7AAD)” value (A549 cells [6]; TTFields 0.97 V/cm RMS, 150 kHz, 72 h) was “only significant in the higher doses”. The “cytotoxic effect (cell count) of inhibitor with TTFields” value (A549 cells [6]; [9]) was “synergistically enhanced; also recorded: enhance”, the “overall effect … of inhibitor with TTFields” value (A549 cells [6]; [9]) was “synergistically enhanced; also recorded: enhance” and the “interaction of co-application of TTFields and inhibitor” value (A549 cells [6]) was “synergistic interaction”.
For VX984, the “pDNAPK (pS2056) signal in response to radiation” value (DNA-PK) was “depletion of pDNAPK (pS2056) signal” and the “glioblastoma cell death (clonogenic survival)” value [7] was “enhances glioblastoma cell death by radiosensitisation”.
